According to PubChem BioAssay AID489041 (Sanford-Burnham Center for Chemical Genomics, 2010):
Active and inactive are the calls of the source. No rule for the calls is given here.

system: HEK-293T NF-kB luciferase reporter counterscreen, luminescence; experiment: inhibitors of HEK-293T NF-kB luciferase – HEK-293T cells, luminescence, counter-screen for T-cell antigen receptor NF-kB inhibitors, dose response (AID 489041)

| Structure (SMILES) | IC50 |
| --- | --- |
| CCOc1ccc(NC(=O)c2cc3c(C)nc4ccccc4c3o2)cc1 | 6.08 µM |
| CCOc1ccc(N(CC(=O)Nc2ccccc2C)S(=O)(=O)c2c(C)noc2C)cc1 | 17 µM |
| Cc1c(C)c2ccc(OCC(=O)Nc3ccccn3)c(C)c2oc1=O | 1.78 µM |
| COCCn1c(C)cc(C2=NNC(=Nc3ccccc3F)SC2)c1C | 17.9 µM |
| C#CC[N+](C)(C)CCCCCCCCCCCC | 25.1 µM (inactive) |
| Cc1ccc(-n2ncc3c(N4CCN(c5ccccc5)CC4)ncnc32)c(C)c1 | 3.24 µM |
| COc1ccc(CCNc2nnc(Sc3nnnn3-c3ccccc3)s2)cc1OC | 8.36 µM |
| C/C(=N\NC(=O)c1cc(C)nc2ccccc12)c1ccccn1 | 3.06 µM |
| CSC1=NC(C(Cl)(Cl)Cl)N=C(c2ccc(C)cc2)N1 (stereo unspecified) | 12.5 µM |
| O=C(c1ccc(Br)cc1)c1cc([N+](=O)[O-])ccc1N1CCOCC1 | 10.8 µM |
| O=C(Nc1ccccc1Cl)/C(Cl)=C(\Cl)S(=O)c1ccccc1 (stereo unspecified) | 9.87 µM |
| CCOC(=O)C1CCN(S(=O)(=O)c2c(Cl)ccc3nonc23)CC1 | 10.7 µM |
| Cc1cc(C(=O)N2CC=C(c3ccccc3)CC2)c2ccccc2n1 | 5.69 µM |
| COc1cc(-c2noc(C)c2-c2ccc(N(C)C)nc2)cc(OC)c1OC | 1.94 µM |
| Cc1cc(C)cc(NC(=O)c2cc(C)n(Cc3cccs3)c2C)c1 | > 80 µM (inactive) |
| O=c1cc(-c2ccccc2)[nH]c2cc(F)ccc12 | 2.62 µM |
| CCOc1ccccc1NC(=O)Cn1nnc(C(=O)NCc2cccs2)c1N | 2.87 µM |
| Cc1cc(-c2ccc(C)c(S(=O)(=O)N3CCN(c4ccc([N+](=O)[O-])cc4)CC3)c2)on1 | > 80 µM (inactive) |
| CC(C)(C)c1ccc(C(=O)Nc2ccc(Oc3cccnc3)nc2)cc1 | 2.18 µM |
| CCOc1ccccc1NS(=O)(=O)c1ccc(-c2cnc(C3CC3)o2)cc1 | 1.79 µM |
| COc1ccc(/C=N\NC(=O)c2ccccc2F)cc1COc1ccc(F)cc1F | 8.43 µM |
| COc1cc(C(=O)N2CCN(c3cccc(C)c3C)CC2)cc(OC)c1OC | 12.5 µM |
| Cc1ccc(-c2cc(-c3ccc(C)cc3)[n+](-c3ccccc3)c(-c3ccc(C)cc3)c2)cc1 | 1.1 µM |
| O=C(NC(Nc1nc2ccc([N+](=O)[O-])cc2s1)(C(F)(F)F)C(F)(F)F)c1ccccc1 | > 80 µM (inactive) |
| CCOc1ccc2c(c1)OC(c1ccc(C)cc1)(C(F)(F)F)NC2=O (stereo unspecified) | 5.57 µM |
| CCN1/C(=C/c2ccc3cc(C)ccc3[n+]2CC)Sc2ccc3sccc3c21 | 63 µM (inactive) |

| Structure (SMILES) | IC50 |
| --- | --- |
| CCCCCCCCCCCCCCCC[n+]1cccc(C(=O)N(CC)CC)c1 | 20.9 µM (inactive) |
| CCOC(=O)Nc1nc(-c2ccccc2)c(C(=O)c2ccc(Cl)cc2)s1 | 3.06 µM |
| CCOC(=O)c1[nH]c(C)c(C(=O)OCC(=O)NC(C)c2ccc(F)cc2)c1C (stereo unspecified) | > 80 µM (inactive) |
| COC(=O)C[C@]1(C(=O)OC)CN(C#N)N(c2ccc(Cl)cc2)C12c1ccccc1-c1ccccc12 | 20.1 µM (inactive) |
| COc1cccc(N2CCN(C(=O)c3ccc(CS(=O)c4ccccc4Cl)o3)CC2)c1 (stereo unspecified) | 6.1 µM |
| O=C(Nc1ccc(S(=O)(=O)N2CCCCC2)cc1)c1ccc(CN2CCOCC2)cc1 | 3.95 µM |
| CCCCOc1ccccc1C1CC(=O)NC2=C1C(=O)CCC2 (stereo unspecified) | 12.8 µM |
| COc1ccccc1C1=NOC(COc2ccc3c(C)cc(=O)oc3c2)C1 (stereo unspecified) | 4.89 µM |
| CCCC(=O)NC(c1ccc(C)cc1)c1ccc2cccnc2c1O (stereo unspecified) | 0.43 µM |
| CCC/C(O)=C1\C(=O)CC(C)(C)CC1=Nc1ccc(OC)cc1OC | 18.4 µM |
| COc1ccc(NC(=O)C(=O)NCC2CCCN2S(=O)(=O)c2ccc(C)cc2)cc1 (stereo unspecified) | 0.69 µM |
| O=S(=O)(c1cc(F)ccc1F)N1CCN(c2ncnc3ccccc23)CC1 | 3.94 µM |
| CCOC(=O)c1ccc(NC(=O)Cn2cnc3cc(C)c(C)cc32)cc1 | 0.88 µM |
| C=C(C)COc1ccc(-c2[nH]ncc2-c2ccc(OC)c(OC)c2)c(O)c1 | 5.03 µM |
| CCOC(=O)c1c(C)[nH]c(C(=O)N/N=C/c2ccc(Br)cc2)c1C | < 0.16 µM |
| CCC(=O)NC(c1ccc(C)cc1)c1ccc2cccnc2c1O (stereo unspecified) | 0.73 µM |
| CC(C)c1ccc(/C=N/Nc2ccc(C(=O)O)cc2)cc1 | 4.37 µM |
| CCn1c2ccccc2c2cc(NC(=O)c3cc(OC)c(OC)c(OC)c3)ccc21 | 3.97 µM |
| O=C(Nc1ccc(S(=O)(=O)Nc2ccc(F)cc2)cc1)c1ccc(CN2CCOCC2)cc1 | 5.68 µM |
| CCOC(=O)N1CCN(C(=O)C2CCCN(Cc3nc(-c4ccc(Cl)cc4)oc3C)C2)CC1 (stereo unspecified) | 3 µM |
| O=C(Nc1ccc([N+](=O)[O-])cc1)Nc1ccon1 | > 80 µM (inactive) |
| COc1ccc(NC(=O)Cn2nnc(-c3ccccc3NS(=O)(=O)c3ccc(OC)cc3)n2)cc1 | 13.6 µM |
| CCOC(=O)c1[nH]c(C)c(C(=O)Nc2ccc(C)cc2C)c1C | 46.1 µM (inactive) |
| COc1cc(/C=C/C(=O)c2ccc([N+](=O)[O-])o2)ccc1O | 7.49 µM |
| Oc1ccccc1N=Nc1nc(-c2ccccc2)c(-c2ccccc2)[nH]1 | 2.84 µM |
| O=C(Nc1ccc(C(F)(F)F)cc1)c1cccn(Cc2ccc3c(c2)OC(F)(F)O3)c1=O | 22.5 µM (inactive) |

| Structure (SMILES) | IC50 |
| --- | --- |
| Cc1ccc(S(=O)(=O)Nc2cccc(-c3ccc4nncn4n3)c2)cc1 | 18.4 µM |
| Cc1nc2ccccc2c2c1CC(C(C)(Cl)Br)O2 (stereo unspecified) | 2.9 µM |
| COc1cc([C@@H]2c3cc4c(cc3[C@H](O)[C@H]3COC(=O)[C@H]23)OCO4)cc(OC)c1OC | < 0.16 µM |
| COc1cc([C@@H]2c3cc4c(cc3[C@@H](OC)[C@H]3COC(=O)[C@H]23)OCO4)cc(OC)c1O | > 80 µM (inactive) |
| CCCN(CCC)C1=CC(=[N+]2CCCC2)CC(C)(C)C1 | 2.39 µM |
| COc1cc(-c2noc(C)c2C#Cc2ccsc2)cc(OC)c1OC | 4.06 µM |
| CN(Cc1ccccc1)C1=CC(=[N+]2CCCCC2)CC(C)(C)C1 | 0.73 µM |
| O=C(Nc1cccc(C(F)(F)F)c1)c1sc(Cl)nc1C(F)(F)F | 40.6 µM (inactive) |
| O=C1c2c(O)ccc(O)c2C(=O)c2c(NCCNCCO)ccc(NCCNCCO)c21 | 10.7 µM |
| CC(=O)O[C@H]1C(=O)[C@@]2(C)[C@H]([C@H](OC(=O)c3ccccc3)[C@]3(O)C[C@H](OC(=O)[C@H](O)[C@@H](NC(=O)c4ccccc4)c4ccccc4)C(C)=C1C3(C)C)[C@]1(OC(C)=O)CO[C@@H]1C[C@@H]2O | > 80 µM (inactive) |
| CCn1c2ccccc2c2cc(Nc3cc(C)nc4ncnn34)ccc21 | 1.34 µM |
| Cc1ccc2nc(SCC(=O)Nc3cc(C(F)(F)F)ccc3N3CCOCC3)[nH]c2c1 | 25.6 µM (inactive) |
| C=CCn1c(SCc2c(C)noc2C)nc2ccccc2c1=O | 2.82 µM |
| CCCOCCOC(=O)c1[nH]c2c(c1C)C(=O)CC(c1cc(OC)ccc1OC)C2 (stereo unspecified) | 1 µM |
| COC(=O)c1c(NC(=O)c2ccc([N+](=O)[O-])o2)sc2c1CCN(C(C)C)C2 | 51.8 µM (inactive) |
| COC(=O)c1[nH]c2c(c1C)C(=O)CC(c1cccs1)C2 (stereo unspecified) | 1.92 µM |
| CCOc1ccc(Nc2cc(C)nc(-n3nc(C)cc3C)n2)cc1 | 3.93 µM |
| CCCCCCCCCn1c2c(c(=N)c3c1CCC3)CCC2 | 0.98 µM |
| C/C(=N\NC(=O)c1ccc(Cl)c(Cl)c1)c1ccccn1 | > 80 µM (inactive) |
| Cc1ccc2c(c1)C=CC(C#N)N2C(=O)c1ccccc1 (stereo unspecified) | 29.1 µM (inactive) |
| Cc1ccc(NC(=O)Nc2ccnc(-c3cccnc3)n2)cc1 | > 80 µM (inactive) |
| Cc1cccc(N(C)S(=O)(=O)c2ccc(-c3cnc(C4CC4)o3)cc2)c1 | 0.57 µM |
| CN(C)c1ccc(-[n+]2c(-c3ccccc3)cc(-c3ccccc3)cc2-c2ccccc2)cc1 | 1.48 µM |
| COc1ccccc1NC(=O)Cn1nnc(C(=O)NCc2cccs2)c1N | 1.93 µM |
| COc1ccc(-c2csc(NC(=O)C3CCN(c4ncnc5sc(C)c(C)c45)CC3)n2)cc1OC | 13.1 µM |
| CCCOC(=O)c1[nH]c2c(c1C)C(=O)CC(c1cccs1)C2 (stereo unspecified) | 15.2 µM |

| Structure (SMILES) | IC50 |
| --- | --- |
| Clc1ccc(CSc2nncn2-c2ccc3c(c2)OCCO3)cc1 | 13.8 µM |
| O=S1(=O)Nc2c(ccc3cccnc23)-c2ccccc21 | 0.28 µM |
| COc1cc2c(c(OC)c1OC)-c1ccc(O)cc1[C@@H](NC(C)=O)CC2 | > 80 µM (inactive) |
| C/C=C(\C)C(=O)N[C@@H](c1ccccc1)[C@@H](O)C(=O)O[C@H]1C[C@@]2(O)[C@@H](OC(=O)c3ccccc3)C3[C@](C)(C(=O)[C@H](OC(C)=O)C(=C1C)C2(C)C)[C@@H](O)C[C@H]1OC[C@@]31OC(C)=O (stereo partly specified) | > 80 µM (inactive) |
| Cc1ccc2nc(C)c(CN3CCN(c4ccc([N+](=O)[O-])cc4Cl)CC3)n2c1 | 6.8 µM |
| CC(C)Oc1ccccc1C1CC(=O)Nc2cc3c(cc21)OCO3 (stereo unspecified) | 3.01 µM |
| COC(=O)C1CN(C#N)N(c2ccc(Cl)cc2)C12c1ccccc1-c1ccccc12 (stereo unspecified) | 15.7 µM |
| CCn1c2ccccc2c2cc(NC(=O)c3cc(OC)cc(OC)c3)ccc21 | > 80 µM (inactive) |
| C[C@]12CC[C@H](O)C[C@H]1CC[C@@H]1[C@@H]2C[C@@H](O)[C@]2(C)[C@@H](C3=CC(=O)OC3)CC[C@]12O | 0.58 µM |
| COc1ccc(NS(=O)(=O)c2cc(-c3cnc(C4CC4)o3)ccc2C)cc1 | 9.37 µM |
| Cc1ccc(O)c(NC(=O)c2cc(-c3ccco3)on2)c1 | > 80 µM (inactive) |
| COc1ccc(NC(=O)/C(Cl)=C(/Cl)S(=O)Cc2ccc(Cl)cc2)cn1 (stereo unspecified) | 7.65 µM |
| CC(=O)c1c(C)[nH]c(C(=O)OCC(=O)Nc2ccc(C)cc2[N+](=O)[O-])c1C | 0.79 µM |
| COc1ccc(CC(=O)Nc2cccc(-c3nnc(-c4cccc(C)c4)o3)c2)cc1OC | 1.24 µM |
| CCO[C@H]1OC(C(=O)NCc2nc3ccccc3[nH]2)=C[C@@H](C2CC2)[C@@H]1CCCO | 41.1 µM (inactive) |
| Cc1nc2c(=O)n(C)c(=O)nc-2n(C)n1 | 1.88 µM |
| O=c1cc(-c2ccccc2)[nH]c2cc(Cl)ccc12 | 19.1 µM |
| CCc1cc(C(=O)NC2CCCc3c2cnn3-c2cccc(C)c2C)n(C)n1 (stereo unspecified) | < 0.16 µM |
| CCc1ccc(/C=N/NC(=O)c2cc(-c3ccncc3)nc3ccccc23)s1 | 7.66 µM |
| CCc1ccc2nc(SCC(=O)Nc3ccccc3N3CCOCC3)c(C#N)cc2c1 | > 80 µM (inactive) |
| C=CC[C@@H](CC/C=C/C=C/CC/C=C\[C@@H]1CSC([C@@H]2C[C@@H]2C)=N1)OC | 3.72 µM |
| COc1ccc(Nc2nc3cc(C)ccc3cc2C#N)c(OC)c1 | > 80 µM (inactive) |
| COc1ccc(S(=O)(=O)/N=C2\C=C(Nc3ccc(O)cc3)C(=O)c3ccccc32)cc1 | 1.03 µM |
